Molecules are shown by their SMILES.

One data set addresses T1, Dihydrofolate reductase (Enterococcus faecium, UniProt P00380).
T1 sequence (P00380 whole entry): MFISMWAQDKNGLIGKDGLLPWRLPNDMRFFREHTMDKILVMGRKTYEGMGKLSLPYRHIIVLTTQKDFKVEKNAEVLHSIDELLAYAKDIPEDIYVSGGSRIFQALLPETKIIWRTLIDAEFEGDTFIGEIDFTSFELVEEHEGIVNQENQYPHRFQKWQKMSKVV
Put plainly: Inhibition of Streptococcus faecium dihydrofolate reductase using dihydrofolate as substrate. Conditions: read-out: I50.

Data set [1] deals with L1210. As to the kind of experiment: Antitumor activity against mouse L1210 cells allografted in mouse assessed as increase in survival at 75 mg/kg administered on day 1 relative to control. The format is functional. The settings on record: L1210, 24 h.
A further data set concerns Mus musculus. Put plainly: Toxicity in mouse allografted with mouse L1210 cells assessed as mortality at 75 mg/kg administered on day 1 measured on day 2. Conditions: in vivo. The data set is classed as organism-based. Further details: dose 75 mg/kg.
Data set [2] concerns L1210. As to the kind of experiment: Antitumor activity against mouse L1210 cells allografted in mouse assessed as increase in survival at 100 mg/kg administered on day 1 to 5 relative to control. The settings on record: L1210, 24 h. The data set is classed as functional.
The test system of data set [3] is L1210. As to the kind of experiment: Antitumor activity against mouse L1210 cells allografted in mouse assessed as increase in survival at 100 mg/kg administered on day 1 to 3 relative to control. The data set is classed as functional. The settings on record: L1210, 24 h.
For data set [4], the system named is L1210. Put plainly: Antitumor activity against mouse L1210 cells allografted in mouse assessed as increase in survival at 200 mg/kg administered on day 1 to 3 relative to control. The format is functional. The settings on record: L1210, 24 h.

Turning to `CCOC(=O)CC[C@H](NC(=O)c1ccc(NCc2ccc3nc(N)nc(N)c3c2C)cc1)C(=O)OCC`, at Dihydrofolate reductase, the IC50 turned out to be 2.4 nM.

On to `Cc1c(CNc2ccc(C(=O)N[C@@H](CCC(=O)O)C(=O)O)cc2)ccc2nc(N)nc(N)c12`, for which the IC50 at Dihydrofolate reductase is 2.2 nM.

Regarding `CCOC(=O)CC[C@H](NC(=O)c1ccc(NCc2ccc3nc(N)nc(N)c3c2Cl)cc1)C(=O)OCC`, the IC50 on Dihydrofolate reductase amounted to 1.7 nM.

`Nc1nc(N)c2c(Cl)c(CNc3ccc(C(=O)N[C@@H](CCC(=O)O)C(=O)O)cc3)ccc2n1`: at Dihydrofolate reductase, the IC50 is 0.7 nM.

In the case of `Nc1nc(N)c2cc(CN(C=O)c3ccc(C(=O)N[C@@H](CCC(=O)O)C(=O)O)cc3)ccc2n1`, in the data set with L1210 [1], the survival at 75 mg/kg was determined as 0%. The Activity entry in the data set on Mus musculus is listed as “Toxic”.

`CCOC(=O)CC[C@H](NC(=O)c1ccc(CNc2ccc3nc(N)nc(N)c3c2)cc1)C(=O)OCC`: the IC50 at Dihydrofolate reductase was 32 nM.

As for `CCOC(=O)CC[C@H](NC(=O)c1ccc(CNc2ccc3nc(N)nc(N)c3c2C)cc1)C(=O)OCC`, on Dihydrofolate reductase, the IC50 was determined as 3.9 nM.

As for `Cc1c(NCc2ccc(C(=O)N[C@@H](CCC(=O)O)C(=O)O)cc2)ccc2nc(N)nc(N)c12`, on Dihydrofolate reductase, the IC50 came out at 8.3 nM.

Regarding `CCOC(=O)CC[C@H](NC(=O)c1ccc(CNc2ccc3nc(N)nc(O)c3c2)cc1)C(=O)OCC`, the IC50 at Dihydrofolate reductase came out at 24000 nM.

As to `Nc1nc(O)c2cc(NCc3ccc(C(=O)N[C@@H](CCC(=O)O)C(=O)O)cc3)ccc2n1`, on Dihydrofolate reductase, the IC50 was 22000 nM.

For the compound `CCOC(=O)CC[C@H](NC(=O)c1ccc(CNc2ccc3nc(N)nc(O)c3c2C)cc1)C(=O)OCC`, the IC50 at Dihydrofolate reductase worked out at 115000 nM.

Regarding `Cc1c(NCc2ccc(C(=O)N[C@@H](CCC(=O)O)C(=O)O)cc2)ccc2nc(N)nc(O)c12`, the IC50 on Dihydrofolate reductase came to 5900 nM.

Take `Nc1nc(N)c2cc(NCc3ccc(C(=O)N[C@@H](CCC(=O)O)C(=O)O)cc3)ccc2n1`: at Dihydrofolate reductase, the IC50 came out at 32 nM.

For the compound `Nc1nc(O)c2cc(CN(C=O)c3ccc(C(=O)N[C@@H](CCC(=O)O)C(=O)O)cc3)ccc2n1`, the survival at 100 mg/kg in the data set with L1210 [2] was determined as 25%; with L1210 [3] it was 19%. In addition, the survival at 200 mg/kg in the data set with L1210 [4] was 15%.

As to `Cc1c(CNc2ccc(C(=O)N[C@@H](CC(=O)O)C(=O)O)cc2)ccc2ncnc(N)c12` [METHASQUIN], the IC50 at Dihydrofolate reductase turned out to be 2.5 nM.

Source of the values: ChEMBL document CHEMBL3244206, “Quinazolines as inhibitors of dihydrofolate reductase. 4. Classical analogues of folic and isofolic acids” (J Med Chem, 1977).
